Measured values published in the kinase profiling compilation of Christmann-Franck et al. (2016).

Experiments:
Assay in all cases: radiometric filter-binding kinase assay
TLK1 (human) = TLK1 (human) (UniProt Q9UKI8)
TTBK1 (human) = TTBK1 (human) (UniProt Q5TCY1)
TSSK1B (human) = TSSK1B (human) (UniProt Q9BXA7)
[1] = test system: OXSR1 (human), O95747 [T185E]
ZAP70 (human) = ZAP70 (human) (UniProt P43403)
PRKCG (human) = PRKCG (human) (UniProt P05129)
MARK3 (human) = MARK3 (human) (UniProt P27448)
TEK (human) = TEK (human) (UniProt Q02763)
CHEK2 (human) = CHEK2 (human) (UniProt O96017)
EIF2AK3 (human) = EIF2AK3 (human) (UniProt Q9NZJ5)
TESK1 (human) = TESK1 (human) (UniProt Q15569)
ABL1 (human) = ABL1 (human) (UniProt P00519)
STK33 (human) = STK33 (human) (UniProt Q9BYT3)
PTK6 (human) = PTK6 (human) (UniProt Q13882)
STK16 (human) = STK16 (human) (UniProt O75716)
IRAK1 (human) = IRAK1 (human) (UniProt P51617)
Chain of IRAK1 (human) (P51617 whole entry, looked up): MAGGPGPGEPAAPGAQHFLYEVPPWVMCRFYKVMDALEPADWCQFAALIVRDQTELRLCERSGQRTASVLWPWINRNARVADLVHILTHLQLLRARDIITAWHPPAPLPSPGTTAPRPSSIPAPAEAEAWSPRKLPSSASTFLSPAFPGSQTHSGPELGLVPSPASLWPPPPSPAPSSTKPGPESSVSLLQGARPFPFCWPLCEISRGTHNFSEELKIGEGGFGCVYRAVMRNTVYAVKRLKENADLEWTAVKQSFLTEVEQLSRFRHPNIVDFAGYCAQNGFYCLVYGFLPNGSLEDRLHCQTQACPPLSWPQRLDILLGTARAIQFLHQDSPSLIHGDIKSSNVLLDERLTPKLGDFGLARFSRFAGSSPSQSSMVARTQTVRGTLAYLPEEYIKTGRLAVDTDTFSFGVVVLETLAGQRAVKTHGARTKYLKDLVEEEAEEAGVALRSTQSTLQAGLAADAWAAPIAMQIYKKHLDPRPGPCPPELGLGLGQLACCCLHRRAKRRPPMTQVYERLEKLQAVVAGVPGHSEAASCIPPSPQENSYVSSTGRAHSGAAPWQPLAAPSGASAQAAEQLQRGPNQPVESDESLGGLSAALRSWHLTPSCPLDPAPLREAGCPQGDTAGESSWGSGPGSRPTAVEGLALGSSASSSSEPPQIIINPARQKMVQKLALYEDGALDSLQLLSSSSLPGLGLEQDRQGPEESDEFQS

Chain of TTBK1 (human) (Q5TCY1 whole entry, looked up): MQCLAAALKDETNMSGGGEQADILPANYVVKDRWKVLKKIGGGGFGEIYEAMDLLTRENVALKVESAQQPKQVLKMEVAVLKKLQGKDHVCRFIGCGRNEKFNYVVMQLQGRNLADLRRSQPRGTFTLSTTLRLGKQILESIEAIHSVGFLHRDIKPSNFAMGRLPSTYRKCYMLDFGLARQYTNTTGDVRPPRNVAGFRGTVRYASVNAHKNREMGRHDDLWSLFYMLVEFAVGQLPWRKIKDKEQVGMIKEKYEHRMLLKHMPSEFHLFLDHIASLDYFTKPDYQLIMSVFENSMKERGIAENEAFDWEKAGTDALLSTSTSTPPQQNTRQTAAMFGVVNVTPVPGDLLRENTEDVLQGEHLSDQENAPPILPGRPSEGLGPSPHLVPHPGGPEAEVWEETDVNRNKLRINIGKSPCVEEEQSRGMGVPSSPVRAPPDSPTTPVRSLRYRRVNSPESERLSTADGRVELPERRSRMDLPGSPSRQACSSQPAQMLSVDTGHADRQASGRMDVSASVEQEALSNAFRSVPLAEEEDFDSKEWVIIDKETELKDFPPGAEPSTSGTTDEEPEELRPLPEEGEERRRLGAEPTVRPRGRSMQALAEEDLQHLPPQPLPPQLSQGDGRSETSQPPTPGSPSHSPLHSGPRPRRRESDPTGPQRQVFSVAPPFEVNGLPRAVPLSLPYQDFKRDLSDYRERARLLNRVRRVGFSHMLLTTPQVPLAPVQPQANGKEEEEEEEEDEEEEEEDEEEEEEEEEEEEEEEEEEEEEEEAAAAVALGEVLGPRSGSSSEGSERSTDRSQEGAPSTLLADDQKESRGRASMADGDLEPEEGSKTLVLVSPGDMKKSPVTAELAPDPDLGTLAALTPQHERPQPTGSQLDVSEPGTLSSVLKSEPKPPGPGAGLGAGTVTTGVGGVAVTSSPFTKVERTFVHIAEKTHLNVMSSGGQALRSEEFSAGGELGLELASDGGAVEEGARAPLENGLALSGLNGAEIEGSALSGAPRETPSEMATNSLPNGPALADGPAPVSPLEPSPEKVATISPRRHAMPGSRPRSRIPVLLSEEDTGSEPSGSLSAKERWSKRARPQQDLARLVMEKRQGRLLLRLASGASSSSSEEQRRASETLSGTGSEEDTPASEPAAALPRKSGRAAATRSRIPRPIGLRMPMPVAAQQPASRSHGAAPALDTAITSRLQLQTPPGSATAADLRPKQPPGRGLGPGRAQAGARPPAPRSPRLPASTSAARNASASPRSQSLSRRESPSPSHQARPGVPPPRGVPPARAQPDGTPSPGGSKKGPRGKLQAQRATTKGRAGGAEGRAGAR
Chain of TLK1 (human) (Q9UKI8 whole entry, looked up): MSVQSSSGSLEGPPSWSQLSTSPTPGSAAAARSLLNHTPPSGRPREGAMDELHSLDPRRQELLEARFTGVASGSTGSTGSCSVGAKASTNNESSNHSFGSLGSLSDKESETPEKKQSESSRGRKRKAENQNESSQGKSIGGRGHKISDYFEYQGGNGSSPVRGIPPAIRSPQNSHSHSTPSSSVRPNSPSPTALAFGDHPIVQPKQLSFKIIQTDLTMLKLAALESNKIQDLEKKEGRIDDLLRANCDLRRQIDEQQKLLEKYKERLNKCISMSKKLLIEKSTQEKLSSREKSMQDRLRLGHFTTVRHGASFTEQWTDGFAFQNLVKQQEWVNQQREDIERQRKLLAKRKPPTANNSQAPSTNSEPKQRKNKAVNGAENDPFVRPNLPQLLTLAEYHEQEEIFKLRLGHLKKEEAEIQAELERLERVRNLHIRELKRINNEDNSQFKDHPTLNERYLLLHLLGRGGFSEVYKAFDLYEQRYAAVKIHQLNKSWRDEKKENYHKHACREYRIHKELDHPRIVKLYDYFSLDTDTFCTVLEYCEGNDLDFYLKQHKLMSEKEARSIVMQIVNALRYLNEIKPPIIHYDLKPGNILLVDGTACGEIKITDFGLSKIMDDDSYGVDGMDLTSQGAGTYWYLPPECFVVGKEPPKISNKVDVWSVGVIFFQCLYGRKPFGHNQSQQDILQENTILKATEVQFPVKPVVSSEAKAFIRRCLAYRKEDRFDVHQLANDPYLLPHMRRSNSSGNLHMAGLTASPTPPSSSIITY
Chain of OXSR1 (human), O95747 [T185E] (O95747 whole entry T185E, looked up): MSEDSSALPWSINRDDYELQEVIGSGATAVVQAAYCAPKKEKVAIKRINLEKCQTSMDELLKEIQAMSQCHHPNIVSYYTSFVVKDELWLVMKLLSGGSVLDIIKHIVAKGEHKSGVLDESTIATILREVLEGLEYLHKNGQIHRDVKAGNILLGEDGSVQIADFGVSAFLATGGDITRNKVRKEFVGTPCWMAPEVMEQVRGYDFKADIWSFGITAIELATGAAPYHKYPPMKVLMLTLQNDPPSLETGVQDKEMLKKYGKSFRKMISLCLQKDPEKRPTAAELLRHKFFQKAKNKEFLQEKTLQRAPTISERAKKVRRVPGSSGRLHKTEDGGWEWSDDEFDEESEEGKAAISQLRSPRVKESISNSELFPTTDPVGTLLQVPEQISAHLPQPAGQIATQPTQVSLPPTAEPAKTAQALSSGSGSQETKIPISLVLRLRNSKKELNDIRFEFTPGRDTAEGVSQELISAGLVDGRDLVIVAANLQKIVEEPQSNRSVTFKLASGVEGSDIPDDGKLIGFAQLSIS
Chain of ZAP70 (human) (P43403 whole entry, looked up): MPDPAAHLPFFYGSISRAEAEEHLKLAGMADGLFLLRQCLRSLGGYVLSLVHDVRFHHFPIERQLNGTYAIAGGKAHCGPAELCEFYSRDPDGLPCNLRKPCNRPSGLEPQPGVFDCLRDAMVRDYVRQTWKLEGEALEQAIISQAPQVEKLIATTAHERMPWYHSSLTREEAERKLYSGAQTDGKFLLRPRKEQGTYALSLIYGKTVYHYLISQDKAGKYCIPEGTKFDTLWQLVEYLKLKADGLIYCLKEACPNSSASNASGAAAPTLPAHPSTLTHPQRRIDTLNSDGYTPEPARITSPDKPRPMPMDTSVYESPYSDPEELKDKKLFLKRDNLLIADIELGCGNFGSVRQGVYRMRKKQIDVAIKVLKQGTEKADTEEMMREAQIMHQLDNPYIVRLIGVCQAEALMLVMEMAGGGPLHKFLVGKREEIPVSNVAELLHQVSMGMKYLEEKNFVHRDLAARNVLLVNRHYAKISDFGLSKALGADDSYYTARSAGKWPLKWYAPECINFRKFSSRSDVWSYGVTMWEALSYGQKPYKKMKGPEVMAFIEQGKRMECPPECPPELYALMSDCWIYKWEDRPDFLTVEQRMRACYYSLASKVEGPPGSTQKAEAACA
Chain of TSSK1B (human) (Q9BXA7 whole entry, looked up): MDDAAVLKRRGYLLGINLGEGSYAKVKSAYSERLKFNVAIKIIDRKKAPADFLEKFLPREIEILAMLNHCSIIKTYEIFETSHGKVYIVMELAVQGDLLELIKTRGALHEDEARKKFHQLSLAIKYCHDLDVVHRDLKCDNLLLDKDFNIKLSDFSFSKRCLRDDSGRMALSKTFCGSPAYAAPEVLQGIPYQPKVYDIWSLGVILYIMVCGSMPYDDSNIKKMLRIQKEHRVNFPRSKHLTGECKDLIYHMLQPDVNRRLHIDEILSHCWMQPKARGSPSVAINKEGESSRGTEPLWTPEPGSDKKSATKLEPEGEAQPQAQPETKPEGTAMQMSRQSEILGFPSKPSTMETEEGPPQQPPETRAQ

Q: For `O=C(N[C@@H](COc1ccc2[nH]c(=O)[nH]c2c1)c1ccccc1)c1cccn(Cc2ccc(F)c(F)c2)c1=O`, which residual activity (TLK1 (human); compound 0.1 µM) is on record?
A: 97%

Q: What about the residual activity (TLK1 (human); compound 1.0 µM) of the same compound?
A: 103%

Q: What about the residual activity (TLK1 (human); compound 10.0 µM) of the same compound?
A: 99%

Q: And the residual activity (TTBK1 (human); compound 0.1 µM)?
A: 101%

Q: What about the residual activity (TTBK1 (human); compound 1.0 µM) of the same compound?
A: 110%

Q: What about the residual activity (TTBK1 (human); compound 10.0 µM) of the same compound?
A: 106%

Q: What about the residual activity (TSSK1B (human); compound 0.1 µM) of the same compound?
A: 93%

Q: And the residual activity (TSSK1B (human); compound 1.0 µM)?
A: 103%

Q: What about the residual activity (TSSK1B (human); compound 10.0 µM) of the same compound?
A: 86%

Q: What about the residual activity ([1]; compound 0.1 µM) of the same compound?
A: 97%

Q: What about the residual activity ([1]; compound 1.0 µM) of the same compound?
A: 96%

Q: What about the residual activity ([1]; compound 10.0 µM) of the same compound?
A: 83%

Q: What about the residual activity (ZAP70 (human); compound 0.1 µM) of the same compound?
A: 102%

Q: And the residual activity (ZAP70 (human); compound 1.0 µM)?
A: 106%

Q: What about the residual activity (PRKCG (human); compound 0.1 µM) of the same compound?
A: 91%

Q: What about the residual activity (PRKCG (human); compound 1.0 µM) of the same compound?
A: 103%

Q: What about the residual activity (MARK3 (human); compound 0.1 µM) of the same compound?
A: 99%

Q: And the residual activity (MARK3 (human); compound 1.0 µM)?
A: 93%

Q: What about the residual activity (MARK3 (human); compound 10.0 µM) of the same compound?
A: 83%

Q: What about the residual activity (TEK (human); compound 0.1 µM) of the same compound?
A: 104%

Q: And the residual activity (TEK (human); compound 1.0 µM)?
A: 100%

Q: What about the residual activity (TEK (human); compound 10.0 µM) of the same compound?
A: 96%

Q: And the residual activity (CHEK2 (human); compound 0.1 µM)?
A: 102%

Q: And the residual activity (CHEK2 (human); compound 1.0 µM)?
A: 106%

Q: And the residual activity (CHEK2 (human); compound 10.0 µM)?
A: 100%

Q: What about the residual activity (EIF2AK3 (human); compound 0.1 µM) of the same compound?
A: 107%

Q: And the residual activity (EIF2AK3 (human); compound 1.0 µM)?
A: 104%

Q: And the residual activity (EIF2AK3 (human); compound 10.0 µM)?
A: 96%

Q: And the residual activity (TESK1 (human); compound 0.1 µM)?
A: 98%

Q: And the residual activity (TESK1 (human); compound 1.0 µM)?
A: 88%

Q: And the residual activity (TESK1 (human); compound 10.0 µM)?
A: 107%

Q: And the residual activity (ABL1 (human); compound 0.1 µM)?
A: 106%

Q: What about the residual activity (ABL1 (human); compound 1.0 µM) of the same compound?
A: 105%

Q: And the residual activity (ABL1 (human); compound 10.0 µM)?
A: 98%

Q: What about the residual activity (STK33 (human); compound 0.1 µM) of the same compound?
A: 92%

Q: And the residual activity (STK33 (human); compound 1.0 µM)?
A: 107%

Q: And the residual activity (STK33 (human); compound 10.0 µM)?
A: 79%

Q: And the residual activity (PTK6 (human); compound 0.1 µM)?
A: 120%

Q: What about the residual activity (PTK6 (human); compound 1.0 µM) of the same compound?
A: 129%

Q: And the residual activity (PTK6 (human); compound 10.0 µM)?
A: 119%

Q: And the residual activity (STK16 (human); compound 0.1 µM)?
A: 101%

Q: What about the residual activity (STK16 (human); compound 1.0 µM) of the same compound?
A: 118%

Q: What about the residual activity (STK16 (human); compound 10.0 µM) of the same compound?
A: 106%

Q: And the residual activity (IRAK1 (human); compound 0.1 µM)?
A: 117%

Q: And the residual activity (IRAK1 (human); compound 1.0 µM)?
A: 118%

Q: And the residual activity (IRAK1 (human); compound 10.0 µM)?
A: 108%

Q: What does the source list for `O=C(NOC[C@H](O)CO)c1ccc(F)c(F)c1Nc1ccc(I)cc1Cl`?
A: residual activity (TLK1 (human); compound 1.0 µM): 96%; residual activity (TLK1 (human); compound 10.0 µM): 104%; residual activity ([1]; compound 1.0 µM): 95%; residual activity ([1]; compound 10.0 µM): 93%; residual activity (ZAP70 (human); compound 1.0 µM): 84%; residual activity (ZAP70 (human); compound 10.0 µM): 100%; residual activity (PRKCG (human); compound 1.0 µM): 91%; residual activity (PRKCG (human); compound 10.0 µM): 99%; residual activity (MARK3 (human); compound 1.0 µM): 91%; residual activity (MARK3 (human); compound 10.0 µM): 74%; residual activity (TEK (human); compound 10.0 µM): 96%; residual activity (CHEK2 (human); compound 1.0 µM): 95%; residual activity (CHEK2 (human); compound 10.0 µM): 114%; residual activity (EIF2AK3 (human); compound 1.0 µM): 96%; residual activity (EIF2AK3 (human); compound 10.0 µM): 105%; residual activity (ABL1 (human); compound 1.0 µM): 103%; residual activity (ABL1 (human); compound 10.0 µM): 98%; residual activity (STK33 (human); compound 10.0 µM): 107%; residual activity (PTK6 (human); compound 1.0 µM): 115%; residual activity (PTK6 (human); compound 10.0 µM): 121%; residual activity (STK16 (human); compound 1.0 µM): 85%; residual activity (STK16 (human); compound 10.0 µM): 101%; residual activity (IRAK1 (human); compound 1.0 µM): 84%; residual activity (IRAK1 (human); compound 10.0 µM): 89%

Q: `CCOC(=O)c1ccc(N2NC(=O)/C(=C/c3ccc([N+](=O)[O-])o3)C2=O)cc1` was tested. Which residual activity (TLK1 (human); compound 10.0 µM) did it give?
A: 108%

Q: What about the residual activity ([1]; compound 10.0 µM) of the same compound?
A: 115%

Q: And the residual activity (ZAP70 (human); compound 10.0 µM)?
A: 95%

Q: And the residual activity (PRKCG (human); compound 10.0 µM)?
A: 99%

Q: What about the residual activity (MARK3 (human); compound 10.0 µM) of the same compound?
A: 84%

Q: What about the residual activity (TEK (human); compound 10.0 µM) of the same compound?
A: 128%

Q: And the residual activity (CHEK2 (human); compound 10.0 µM)?
A: 92%

Q: And the residual activity (EIF2AK3 (human); compound 10.0 µM)?
A: 83%

Q: What about the residual activity (ABL1 (human); compound 10.0 µM) of the same compound?
A: 107%

Q: And the residual activity (STK33 (human); compound 10.0 µM)?
A: 119%

Q: What about the residual activity (PTK6 (human); compound 10.0 µM) of the same compound?
A: 79%

Q: What about the residual activity (IRAK1 (human); compound 10.0 µM) of the same compound?
A: 84%

Q: What does the source list for `Cc1nc(-c2ccc(OCC(C)C)c(C#N)c2)sc1C(=O)O`?
A: residual activity (TLK1 (human); compound 1.0 µM): 86%; residual activity (TLK1 (human); compound 10.0 µM): 94%; residual activity ([1]; compound 1.0 µM): 96%; residual activity ([1]; compound 10.0 µM): 80%; residual activity (ZAP70 (human); compound 1.0 µM): 104%; residual activity (PRKCG (human); compound 1.0 µM): 81%; residual activity (PRKCG (human); compound 10.0 µM): 85%; residual activity (MARK3 (human); compound 1.0 µM): 91%; residual activity (MARK3 (human); compound 10.0 µM): 87%; residual activity (TEK (human); compound 1.0 µM): 78%; residual activity (TEK (human); compound 10.0 µM): 67%; residual activity (CHEK2 (human); compound 1.0 µM): 101%; residual activity (CHEK2 (human); compound 10.0 µM): 60%; residual activity (EIF2AK3 (human); compound 1.0 µM): 94%; residual activity (EIF2AK3 (human); compound 10.0 µM): 88%; residual activity (ABL1 (human); compound 1.0 µM): 96%; residual activity (ABL1 (human); compound 10.0 µM): 89%; residual activity (STK33 (human); compound 1.0 µM): 101%; residual activity (STK33 (human); compound 10.0 µM): 89%; residual activity (PTK6 (human); compound 1.0 µM): 99%; residual activity (STK16 (human); compound 1.0 µM): 46%; residual activity (STK16 (human); compound 10.0 µM): 47%; residual activity (IRAK1 (human); compound 1.0 µM): 106%; residual activity (IRAK1 (human); compound 10.0 µM): 102%
